Experimental data: patent US9458120B2, “Phenoxypropanol derivative and pharmaceutical composition including the same” (KOREA INSTITUTE OF SCIENCE AND TECHNOLOGY, priority 2011, dated 2016)

Key:
[1] = biological target: α1G T-type calcium channel (Homo sapiens, UniProt O43497); experiment: Assay for T-type calcium channel inhibition activity (FDSS6000 calcium imaging, KCl activation); type: cell-based; details: 75 s pre-treatment then KCl 75 mM, HEK293 cells expressing α1G T-type calcium channel and Kir2.1
α1G T-type calcium channel, sequence (O43497 whole entry): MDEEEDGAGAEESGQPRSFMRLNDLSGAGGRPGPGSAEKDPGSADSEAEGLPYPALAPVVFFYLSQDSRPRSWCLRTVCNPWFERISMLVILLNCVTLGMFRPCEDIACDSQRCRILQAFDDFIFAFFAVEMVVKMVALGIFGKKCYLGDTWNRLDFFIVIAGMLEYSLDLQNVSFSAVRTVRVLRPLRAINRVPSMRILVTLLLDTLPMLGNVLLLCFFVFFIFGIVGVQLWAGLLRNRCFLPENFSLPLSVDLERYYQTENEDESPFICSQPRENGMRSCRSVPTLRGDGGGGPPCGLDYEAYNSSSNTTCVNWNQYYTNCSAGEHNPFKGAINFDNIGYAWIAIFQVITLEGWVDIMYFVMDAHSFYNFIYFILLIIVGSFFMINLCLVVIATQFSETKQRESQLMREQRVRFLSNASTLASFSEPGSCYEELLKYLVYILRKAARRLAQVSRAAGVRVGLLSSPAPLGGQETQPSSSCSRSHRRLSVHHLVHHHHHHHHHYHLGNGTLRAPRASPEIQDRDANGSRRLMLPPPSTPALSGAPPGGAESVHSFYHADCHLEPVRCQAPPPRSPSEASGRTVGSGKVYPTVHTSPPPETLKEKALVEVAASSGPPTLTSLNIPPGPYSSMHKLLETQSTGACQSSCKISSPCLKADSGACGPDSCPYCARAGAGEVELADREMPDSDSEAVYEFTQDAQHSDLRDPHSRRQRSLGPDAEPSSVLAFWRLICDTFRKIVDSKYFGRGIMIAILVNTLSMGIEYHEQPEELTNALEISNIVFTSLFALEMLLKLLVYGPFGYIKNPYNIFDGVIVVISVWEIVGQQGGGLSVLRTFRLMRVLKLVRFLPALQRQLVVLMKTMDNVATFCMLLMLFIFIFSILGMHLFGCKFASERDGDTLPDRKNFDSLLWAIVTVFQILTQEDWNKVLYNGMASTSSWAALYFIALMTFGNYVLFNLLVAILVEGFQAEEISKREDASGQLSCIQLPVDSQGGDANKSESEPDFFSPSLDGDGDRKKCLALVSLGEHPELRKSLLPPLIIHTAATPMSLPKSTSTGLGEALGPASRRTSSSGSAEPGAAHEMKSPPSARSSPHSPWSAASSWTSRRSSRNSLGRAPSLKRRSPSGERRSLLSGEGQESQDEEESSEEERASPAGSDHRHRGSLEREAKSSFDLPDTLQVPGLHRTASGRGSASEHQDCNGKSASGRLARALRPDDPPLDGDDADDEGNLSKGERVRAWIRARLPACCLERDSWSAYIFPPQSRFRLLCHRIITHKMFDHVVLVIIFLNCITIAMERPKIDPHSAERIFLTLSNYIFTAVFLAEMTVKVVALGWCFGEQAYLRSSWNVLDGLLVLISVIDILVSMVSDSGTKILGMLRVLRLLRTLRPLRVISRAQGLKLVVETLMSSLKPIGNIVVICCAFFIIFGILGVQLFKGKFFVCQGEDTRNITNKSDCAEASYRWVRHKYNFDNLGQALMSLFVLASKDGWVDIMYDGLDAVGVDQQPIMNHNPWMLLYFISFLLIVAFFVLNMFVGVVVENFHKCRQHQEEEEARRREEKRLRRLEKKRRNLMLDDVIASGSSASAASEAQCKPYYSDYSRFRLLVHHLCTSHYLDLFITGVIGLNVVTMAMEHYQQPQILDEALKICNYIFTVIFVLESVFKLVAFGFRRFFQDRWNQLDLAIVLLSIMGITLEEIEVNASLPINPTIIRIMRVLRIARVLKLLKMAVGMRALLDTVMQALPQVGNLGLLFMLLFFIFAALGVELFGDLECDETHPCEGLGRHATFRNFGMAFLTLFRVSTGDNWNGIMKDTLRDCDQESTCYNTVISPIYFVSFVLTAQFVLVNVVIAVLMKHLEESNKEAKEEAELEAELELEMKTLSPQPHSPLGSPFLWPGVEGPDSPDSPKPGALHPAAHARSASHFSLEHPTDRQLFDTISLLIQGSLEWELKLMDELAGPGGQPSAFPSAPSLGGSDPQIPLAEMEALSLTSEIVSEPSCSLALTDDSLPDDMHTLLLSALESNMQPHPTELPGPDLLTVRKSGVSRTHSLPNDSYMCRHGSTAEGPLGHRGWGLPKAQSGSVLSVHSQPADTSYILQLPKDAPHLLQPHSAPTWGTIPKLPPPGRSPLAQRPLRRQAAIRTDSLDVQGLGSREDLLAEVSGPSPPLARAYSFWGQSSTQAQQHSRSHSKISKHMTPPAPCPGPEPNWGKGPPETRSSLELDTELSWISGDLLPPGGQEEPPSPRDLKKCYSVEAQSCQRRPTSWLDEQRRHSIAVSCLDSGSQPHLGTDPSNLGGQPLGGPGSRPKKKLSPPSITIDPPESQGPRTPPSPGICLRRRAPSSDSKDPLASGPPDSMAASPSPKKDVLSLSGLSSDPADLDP

[2] = biological target: T1, TREK-1 channel (Rattus norvegicus, UniProt Q920B6); experiment: Assay for TREK channel inhibition activity (whole cell patch clamp recording, COS7 cell transfected with GFP-rTREK-1); type: cell-based; details: COS7 cells, GFP-rTREK-1, whole-cell patch clamp; for inhibition at 101 µM: COS-7, Table 3 (value ± spread), 101 μM [sic], read-out: block % at 101 μM; for inhibition at 10 µM: COS-7, Table 2, read-out: block % at 10 μM
T1 construct: expressed in transfected cells; host or cells: COS7 (Korean Cell Line Bank), transient transfection with Effectene
T1 sequence (Q920B6 1-426): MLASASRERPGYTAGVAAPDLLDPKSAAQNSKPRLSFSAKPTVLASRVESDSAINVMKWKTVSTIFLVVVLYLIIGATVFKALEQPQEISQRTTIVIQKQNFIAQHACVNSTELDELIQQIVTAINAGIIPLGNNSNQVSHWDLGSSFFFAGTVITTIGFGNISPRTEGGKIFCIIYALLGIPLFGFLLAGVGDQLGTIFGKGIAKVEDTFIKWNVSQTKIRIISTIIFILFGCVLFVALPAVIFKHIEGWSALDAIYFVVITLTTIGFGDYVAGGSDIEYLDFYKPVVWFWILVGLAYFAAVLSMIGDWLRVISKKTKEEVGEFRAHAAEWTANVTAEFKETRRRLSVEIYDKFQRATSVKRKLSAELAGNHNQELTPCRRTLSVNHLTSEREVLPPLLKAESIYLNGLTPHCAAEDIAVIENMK
Procedure, shortened: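 Whole-cell patch clamp was run on COS7 cells 24 h after transfection with GFP-rTREK-1, held at −70 mV, using a 1 s ramp from −100 to +100 mV. Current was taken as the difference between +100 and −100 mV values. Block % = 100 − (current after/before blocker) × 100.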

| inhibition [1] | inhibition at 101 µM [2] | inhibition at 10 µM [2] | Structure (SMILES) |
| --- | --- | --- | --- |
| 74.1% | 57 ± 6.08% | – | CC(C)Cc1cc(CNC(=O)CN2CCN(C[C@H](O)COc3ccc(C(F)(F)F)cc3)CC2)nn1-c1ccc(F)cc1 [KKRE10219, (S)-N-((1-(4-fluorophenyl)-5-isobutyl-1H-pyrazol-3-yl)methyl)-2-(4-(2-hydroxy-3-(4-(trifluoromethyl)phenoxy)propyl)piperazin-1-yl)acetamide] |
| 33.7% | 24 ± 10.6% | – | O[C@@H](COc1ccc(F)cc1)CN1CCN(Cc2nccn2Cc2ccccc2)CC1 [KKRE10155, (R)-1-(4-((1-benzyl-1H-imidazol-2-yl)methyl)piperazin-1-yl)-3-(4-fluorophenoxy)propan-2-ol] |
| 75.7% | 50.1 ± 10.7% | – | CC(C)Cc1cc(CNC(=O)CN2CCN(C[C@@H](O)COc3ccc(C(F)(F)F)cc3)CC2)nn1-c1ccc(F)cc1 [KKRE10217, (R)-N-((1-(4-fluorophenyl)-5-isobutyl-1H-pyrazol-3-yl)methyl)-2-(4-(2-hydroxy-3-(4-(trifluoromethyl)phenoxy)propyl)piperazin-1-yl)acetamide] |
| 77.4% | 71.4 ± 10.8% | – | Cc1ccc(F)cc1-n1nc(CNC(=O)CN2CCN(C[C@@H](O)COc3ccc(C(F)(F)F)cc3)CC2)cc1CC(C)C [KKRE10216, (R)-N-((1-(5-fluoro-2-methylphenyl)-5-isobutyl-1H-pyrazol-3-yl)methyl)-2-(4-(2-hydoxy-3-(4-(trifluoromethyl)phenoxy)propyl)piperazin-1-yl)acetamide] |
| 68.9% | 83.1 ± 4.99% | – | Cc1ccc(F)cc1-n1nc(CNC(=O)CN2CCN(C[C@H](O)COc3ccc(C(F)(F)F)cc3)CC2)cc1CC(C)C [KKRE10221, (S)-N-((1-(5-fluoro-2-methylphenyl)-5-isobutyl-1H-pyrazol-3-yl)methyl)-2-(4-(2-hydroxy-3-(4-(trifluoromethyl)phenoxy)propyl)piperazin-1-yl)acetamide] |
| 12.3% | 16.3 ± 12.9% | 57.5% | Cc1ccc(CNC(=O)CN2CCN(C[C@@H](O)COc3ccccc3)CC2)cc1 [KKRE10204, (R)-2-(4-(2-hydroxy-3-phenoxypropyl)piperazin-1-yl)-N-(4-methylbenzyl)acetamide] |
| 35.8% | 41.4 ± 12.7% | – | CC(C)Cc1cc(CNC(=O)CN2CCN(C[C@H](O)COc3ccc(C(F)(F)F)cc3)CC2)nn1-c1cc(Cl)cc(Cl)c1 [KKRE10220, (S)-N-((1-(3,5-dichlorophenyl)-5-isobutyl-1H-pyrazol-3-yl)methyl)-2-(4-(2-hydroxy-3-(4-(trifluoromethyl)phenoxy)propyl)piperazin-1-yl)acetamide] |
| 55.4% | 25.4 ± 7.87% | 25.4% | Cc1ccc(OC[C@@H](O)CN2CCN(CC(=O)NCc3ccc(C(F)(F)F)cc3)CC2)cc1 [KKRE10201, (S)-2-(4-(2-hydroxy-3-(p-tolyloxy)propyl)piperazin-1-yl)-N-(4-(trifluoromethyl)benzyl)acetamide] |
| 77.6% | 74.1 ± 2.75% | – | Cc1ccc(F)cc1-n1nc(CNC(=O)CN2CCN(C[C@H](O)COc3ccc(F)cc3)CC2)cc1CC(C)C [KKRE10229, (S)-N-((1-(5-Fluoro-2-methylphenyl)-5-isobutyl-1H-pyrazol-3-yl)methyl)-2-(4-(3-(4-fluorophenoxy)-2-hydroxypropyl)piperazin-1-yl)acetamide] |
| 9.54% | 37.4 ± 6.98% | – | O[C@@H](COc1ccc(C(F)(F)F)cc1)CN1CCC(N2CCCC2)CC1 [KKRE10184, (R)-1-(4-(pyrrolidin-1-yl)piperidin-1-yl)-3-(4-(trifluoromethyl)phenoxy)propan-2-ol] |
